Assay results taken from ChEMBL document CHEMBL3862006, “Design and synthesis of peptide-based macrocyclic cyclophilin inhibitors” (Bioorg Med Chem Lett, 2016).
Numbered stars: 1 amine (or outer) side, 2 acyl side, 3 side chain; on linkers, the order of the positions; unused ones are H or OH. Peptide text beside a SMILES is read from it. * marks the point of attachment. pNA = O=[N+]([O-])c1ccc(N*)cc1; Suc = O=C(CCC(=O)[*:2])[*:1]

Assays:
[1] = molecular target: T1, Peptidyl-prolyl cis-trans isomerase A (Homo sapiens, UniProt P62937); test: Inhibition of fluorescent cyclosporin A binding to human CypA by TR-FRET assay
[2] = Distribution coefficient, logD of the compound; format: physicochemical; conditions: octanol/water
[3] = Unbound fraction in human plasma; format: ADME, cell-free
[4] = Apparent permeability across basolateral to apical side in human Caco2 cells; format: ADME, cell-based; conditions: Caco-2
[5] = Aqueous solubility of the compound; format: physicochemical; conditions: buffer
[6] = Apparent permeability across apical to basolateral side in human Caco2 cells; format: ADME, cell-based; conditions: Caco-2
[7] = Intrinsic clearance in human liver microsomes; format: ADME; conditions: read-out: CLH
[8] = molecular target: T1, Peptidyl-prolyl cis-trans isomerase A; test: Binding affinity to CypA (unknown origin) by fluorescence titration method

T1 sequence (P62937 whole entry): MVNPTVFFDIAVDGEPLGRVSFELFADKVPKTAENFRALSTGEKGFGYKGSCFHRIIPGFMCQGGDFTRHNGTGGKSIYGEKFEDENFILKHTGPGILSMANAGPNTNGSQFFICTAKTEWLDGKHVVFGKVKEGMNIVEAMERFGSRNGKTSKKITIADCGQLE

SMILES | Kd [1] | other results
C[C@@]1(NCC2CCOCC2)COCCCCOC[C@@H](C(=O)O)NC(=O)[C@@H]2CCCN2C(=O)CNC1=O | > 600 µM | 
C[C@@]1(NCCc2ccccc2)COCCCCOC[C@@H](C(=O)O)NC(=O)[C@@H]2CCCN2C(=O)CNC1=O.Cl | 10.5 µM | logD [2]: -1.8; fraction unbound [3]: 1; Papp B→A [4]: 0.17 ×10⁻⁶ cm/s; solubility [5]: > 1000 µM; Papp A→B [6]: 0.1 ×10⁻⁶ cm/s; microsomal CLint [7]: < 3 µL/min/mg
C[C@@]1(NCC2CCCCC2)COCCCCOC[C@@H](C(=O)O)NC(=O)[C@@H]2CCCN2C(=O)CNC1=O | 32 µM | 
C[C@@]1(NCC2CCCCCCC2)COCCCCOC[C@@H](C(=O)O)NC(=O)[C@@H]2CCCN2C(=O)CNC1=O | 5.4 µM | 
C[C@@]1(NCc2ccccc2)COCCCCOC[C@@H](C(=O)O)NC(=O)[C@@H]2CCCN2C(=O)CNC1=O | > 600 µM | 
C[C@H](NC(=O)CCC(=O)O)C(=O)NCC(=O)N1CCC[C@H]1C(=O)N[C@@H](Cc1ccccc1)C(=O)Nc1ccc([N+](=O)[O-])cc1 (Suc-AGPF-pNA) |  | Kd [8]: 135 µM

Continued, in another order:

Kd [1] | SMILES | other results
> 600 µM | C[C@@]1(NCCCc2ccccc2)COCCCCOC[C@@H](C(=O)O)NC(=O)[C@@H]2CCCN2C(=O)CNC1=O | 
> 600 µM | C[C@@]1(NC(=O)c2cc(Cl)cc(Cl)c2)COCCCCOC[C@@H](C(=O)O)NC(=O)[C@@H]2CCCN2C(=O)CNC1=O | 
> 600 µM | CCCCCCC(=O)N[C@]1(C)COCCCCOC[C@@H](C(=O)O)NC(=O)[C@@H]2CCCN2C(=O)CNC1=O | 
127 µM | C[C@@]1(N)COCCCCOC[C@@H](C(=O)O)NC(=O)[C@@H]2CCCN2C(=O)CNC1=O | 
> 600 µM | C[C@@]1(NCC2CCCC2)COCCCCOC[C@@H](C(=O)O)NC(=O)[C@@H]2CCCN2C(=O)CNC1=O | 
139 µM | C[C@@]1(NC(=O)C2CCC2)COCCCCOC[C@@H](C(=O)O)NC(=O)[C@@H]2CCCN2C(=O)CNC1=O | 
> 600 µM | CC(=O)N[C@]1(C)COCCCCOC[C@@H](C(=O)O)NC(=O)[C@@H]2CCCN2C(=O)CNC1=O | 
